“And” between values parts separate entries of the source, which are not always exact repeats. Equal entries are not always repeated.

For experiment [1], the target named is T1, Thromboxane A2 receptor (Homo sapiens) (UniProt P21731).
T1 sequence (whole entry): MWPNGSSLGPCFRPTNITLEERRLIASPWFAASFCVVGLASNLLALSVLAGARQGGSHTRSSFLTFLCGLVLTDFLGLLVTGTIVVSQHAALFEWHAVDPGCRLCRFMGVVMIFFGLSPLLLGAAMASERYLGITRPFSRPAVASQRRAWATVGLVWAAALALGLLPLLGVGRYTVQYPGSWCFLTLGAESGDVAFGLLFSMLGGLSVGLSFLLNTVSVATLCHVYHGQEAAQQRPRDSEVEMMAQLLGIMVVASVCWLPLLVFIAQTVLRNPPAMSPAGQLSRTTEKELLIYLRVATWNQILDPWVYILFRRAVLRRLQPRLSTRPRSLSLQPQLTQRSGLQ
Description: Binding affinity for thromboxane A2 receptor by measuring its ability to displace [3H]U-46619 from guinea pig platelets at 0.1 uM. To be noted: Cavia porcellus, target entry is the homologue from another species.

For experiment [2], the target named is T2, Thromboxane-A synthase (Homo sapiens) (UniProt P24557).
T2 sequence (whole entry): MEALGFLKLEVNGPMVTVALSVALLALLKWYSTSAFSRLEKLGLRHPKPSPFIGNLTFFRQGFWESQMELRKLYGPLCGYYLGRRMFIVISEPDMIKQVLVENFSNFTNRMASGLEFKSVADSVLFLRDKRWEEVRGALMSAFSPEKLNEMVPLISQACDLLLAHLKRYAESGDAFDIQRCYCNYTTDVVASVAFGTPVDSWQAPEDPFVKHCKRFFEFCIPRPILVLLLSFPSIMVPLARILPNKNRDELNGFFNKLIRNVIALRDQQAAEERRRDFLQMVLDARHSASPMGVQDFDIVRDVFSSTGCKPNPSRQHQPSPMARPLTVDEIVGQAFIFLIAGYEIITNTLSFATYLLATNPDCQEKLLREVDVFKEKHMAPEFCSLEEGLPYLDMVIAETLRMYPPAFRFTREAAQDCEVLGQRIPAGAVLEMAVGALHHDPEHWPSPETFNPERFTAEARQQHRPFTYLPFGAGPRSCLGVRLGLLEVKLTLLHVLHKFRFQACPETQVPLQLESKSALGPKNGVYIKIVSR
Description: Inhibitory activity against thromboxane A2 synthase obtained from bovine platelet microsomes at 10 uM. To be noted: Bos taurus, target entry is the homologue from another species.

Experiment [3] relates to Thromboxane-A synthase (Bos taurus). Description: Inhibitory effect against thromboxane A2 synthase from bovine platelets at 10 uM concentration.
The target in experiment [4] is T1, Thromboxane A2 receptor (Homo sapiens). Description: Inhibitory effect against binding thromboxane A2 receptor on guinea pig platelets using [3H]U-46619 as radioligand at 1 uM concentration. To be noted: Cavia porcellus, target entry is the homologue from another species.
For experiment [5] the target is unchanged. Description: Compound was tested for its binding affinity at TXA2 receptor by measuring its ability to displace [3H]U-46619 from guinea pig platelets at 1 uM. To be noted: Cavia porcellus, target entry is the homologue from another species.
Experiment [6] deals with Cavia porcellus. Description: Inhibitory effect of the compounds on U-46619-induced platelet aggregation ex vivo in guinea pig at the dose of 10 mg/kg 2 hr after oral administration. In kind it is functional.
The subject of experiment [7] is Cavia porcellus. The experiment can be described thus: Inhibitory effect of the compounds on U-46619-induced platelet aggregation ex vivo in guinea pig at the dose of 10 mg/kg 7 hr oral after administration. In kind it is functional.
The target of experiment [8] is T1, Thromboxane A2 receptor (Homo sapiens). The experiment can be described thus: Binding affinity for thromboxane A2 receptor by measuring ability to displace [3H]U-46619 from guinea pig platelets at 1 uM. To be noted: Cavia porcellus, target entry is the homologue from another species.
Experiment [9] has as its system Cavia porcellus. The experiment can be described thus: Compound was tested ex vivo for it's inhibition of U-46619 induced platelet aggregation in the guinea pig after 2 hr of administration at dose 10 mg/kg. In kind it is functional.
The test system of experiment [10] is Cavia porcellus. Description: Compound was tested ex vivo for it''s inhibition of U-46619 induced platelet aggregation in the guinea pig ex vivo after 7 hr of administration at dose 10 mg/kg. In kind it is functional.
For experiment [11], the system named is Cavia porcellus. Description: Compound was tested ex vivo for it's inhibition of U-46619 induced platelet aggregation in the guinea pig after 4 hr of administration at dose 10 mg/kg. In kind it is functional.
Experiment [12] deals with Cavia porcellus. Description: Inhibitory effect of the compounds on U-46619-induced platelet aggregation ex vivo in guinea pig at the dose of 10 mg/kg 4 hr after oral administration. In kind it is functional.
Experiment [13] relates to Cavia porcellus. The experiment can be described thus: Compound was tested ex vivo for it''s inhibition of U-46619 induced platelet aggregation in the guinea pig after 2 hr of administration at dose 10 mg/kg. In kind it is functional.
The test system of experiment [14] is Cavia porcellus. Description: Compound was tested ex vivo for it''s inhibition of U-46619 induced platelet aggregation in the guinea pig after 4 hr of administration at dose 10 mg/kg. In kind it is functional.
In experiment [15] the test system is Cavia porcellus. The experiment can be described thus: Compound was tested ex vivo for it's inhibition of U-46619 induced platelet aggregation in the guinea pig after 2 hr of administration at dose 30 mg/kg. In kind it is functional.
The subject of experiment [16] is Cavia porcellus. The experiment can be described thus: Inhibitory effect of the compounds on U-46619-induced platelet aggregation ex vivo in guinea pig at the dose of 100 mg/kg 2 hr after oral administration. In kind it is functional.
Experiment [17] has as its system Cavia porcellus. Description: Compound was tested ex vivo for it's inhibition of U-46619 induced platelet aggregation in the guinea pig after 2 hr of administration at dose 100 mg/kg. In kind it is functional.
The target of experiment [18] is T1, Thromboxane A2 receptor (Homo sapiens). The experiment can be described thus: Compound was tested for its binding affinity at Thromboxane A2 receptor by measuring its ability to displace [3H]-U-46,619 from guinea pig platelets at 1 uM. To be noted: Cavia porcellus, target entry is the homologue from another species.
Experiment [19] concerns Cavia porcellus. The experiment can be described thus: Inhibitory effect of the compounds on U-46619-induced platelet aggregation ex vivo in guinea pig at the dose of 100 mg/kg 4 hr after oral administration. In kind it is functional.
Experiment [20] concerns Cavia porcellus. Description: Compound was tested ex vivo for it's inhibition of U-46619 induced platelet aggregation in the guinea pig after 4 hr of administration at dose 30 mg/kg. In kind it is functional.
The test system of experiment [21] is Cavia porcellus. The experiment can be described thus: Compound was tested ex vivo for it's inhibition of U-46619 induced platelet aggregation in the guinea pig after 4 hr of administration at dose 100 mg/kg. In kind it is functional.
In experiment [22] the target is T1, Thromboxane A2 receptor (Homo sapiens). The experiment can be described thus: Compound was tested for its binding affinity at Thromboxane A2 receptor by measuring its ability to displace [3H]U-46619 from guinea pig platelets. To be noted: Cavia porcellus; target entry is the homologue from another species; concentration not given here.
The subject of experiment [23] is Cavia porcellus. The experiment can be described thus: Inhibitory effect of the compounds on U-46619-induced platelet aggregation ex vivo in guinea pig at the dose of 30 mg/kg 2 hr after oral administration. In kind it is functional.
Experiment [24] concerns Cavia porcellus. Description: Compound was tested ex vivo for it''s inhibition of U-46619 induced platelet aggregation in the guinea pig after 7 hr of administration at dose 10 mg/kg. In kind it is functional.

Consider `O=C(O)c1ccc2c(c1)C(SCCNS(=O)(=O)c1ccc3ccccc3c1)c1ccccc1CO2` (configuration not stated), for which the inhibition in [1] is 77%; in experiment [2] it was 38%; in experiment [3] it was 38%; in [4] it was 95%. The pInhibition in experiment [5] amounted to 95%.

`O=C(O)c1ccc2c(c1)C(SCCNS(=O)(=O)c1cccs1)c1ccccc1CO2` (configuration not stated): the inhibition in experiment [1] is 84%; in experiment [2], 33%; in experiment [3], 33%; in [4], 99%; in [8], 99%. The results for the Platelet aggregation in experiment [6], in experiment [7] and in experiment [12] were 14.3%, 12.3% and 2.1%, respectively. In addition, the values for the Aggregation in experiment [9], in experiment [10] and in [11] were 14.3%, 12.3% and 2.1%, respectively.

As for `O=C(O)c1ccc2c(c1)C(SCCNS(=O)(=O)c1ccccc1)c1ccccc1CS2` (configuration not stated), the inhibition in [1] was 94%; in experiment [4], 99%; in [8] it was 99%. The Aggregation in [13] and in experiment [14] was 0% throughout. Further, the Platelet aggregation in experiment [6] and in experiment [12] was 0% throughout.

For the compound `O=C(O)COc1ccc(CCNS(=O)(=O)c2ccccc2)cc1` [SULOTROBAN], the Aggregation in [15] amounted to 28%; in [17], 12.7%; in experiment [20], 87%; in experiment [21] it was 57%. Moreover, the Platelet aggregation in [16] is given as 12.7%; in [19] it was 57%; in experiment [12], 87%; in [23], 28%. The inhibition in experiment [18] was 31%; in [4], 31%; in [22], -5%.

With `O=C(NCCSC1c2ccccc2COc2ccc(C(=O)O)cc21)OCc1ccccc1` (configuration not stated), the inhibition worked out at 79% in [1]; 56% in [2]; 56% in experiment [3]; 96% in experiment [4]; 96% in [8]. Also, the Aggregation in experiment [13] is recorded as 8.7%; in experiment [14], 57.3%. The Platelet aggregation in experiment [6] is 8.7%; in experiment [12], 57.3%.

For `O=C(O)c1ccc2c(c1)C(SCCNC(=O)c1ccccc1)c1ccccc1CO2` (configuration not stated), the inhibition stood at 69% in experiment [1]; 63% in [2]; 63% in experiment [3]; 92% in experiment [4]; 92% in [8]. In experiment [13], this compound had an Aggregation of 68.3%. Further, in experiment [6], the Platelet aggregation is on record as 68.3%.

With `O=C(O)c1ccc2c(c1)C(SCCNS(=O)(=O)/C=C/c1ccccc1)c1ccccc1CO2` (single isomer, unassigned; (+)), the values for the Platelet aggregation in [6], in experiment [7] and in experiment [12] were 0%, 10.7% and 2.3%, respectively.

In the case of `O=C(O)c1ccc2c(c1)C(SCC/N=C(\S)NCc1ccccc1)c1ccccc1CO2` (configuration not stated), the inhibition in [1] came out at 80%; in [2], 92%; in experiment [3], 92%; in [4], 96%; in experiment [8] it was 96%. Further, the Aggregation in experiment [14] was 61.7%. In addition, the Platelet aggregation in experiment [6] is 61.7%.

With `O=C(O)c1ccc2c(c1)C(SCCNS(=O)(=O)/C=C/c1ccccc1)c1ccccc1CO2` (racemic) [listing 1 of 2 here], the inhibition in experiment [18] stood at 97%; in experiment [4], 97%; in experiment [22], 92%.

For `O=C(O)c1ccc2c(c1)C(SCCNS(=O)(=O)/C=C/c1ccccc1)c1ccccc1CO2` (racemic) [listing 2 of 2 here], the results for the Aggregation in [9], in experiment [10] and in experiment [11] were 0%, 10.7% and 2.3%, respectively.

For the compound `O=C(O)c1ccc2c(c1)C(SCCNS(=O)(=O)c1ccccc1)c1cc(Br)ccc1CO2` (configuration not stated), the inhibition worked out at 75% in experiment [1]; 6% in [2]; 6% in experiment [3]; 94% in [4]; 94% in experiment [8]. Moreover, the Platelet aggregation in experiment [6] turned out to be 41%. In addition, the Aggregation in experiment [9] was 41%.

Consider `O=C(O)c1ccc2c(c1)C(SCCNS(=O)(=O)c1ccccc1)c1ccccc1CO2` (configuration not stated), for which the inhibition is 72% in [1]; 92% and 84% in experiment [4]; 92% in experiment [8]. The Platelet aggregation was found to be 11.8% in [6], 12.3% in experiment [7] and 4.5% in experiment [12]. For the same compound, the Aggregation was 11.8% in experiment [9], 12.3% in experiment [24] and 4.5% in experiment [11].

As usually defined, the inhibition is the drop in the measured response relative to a control, in per cent.

The record behind these values is ChEMBL document CHEMBL1126121, “Non-prostanoid thromboxane A2 receptor antagonists with a dibenzoxepin ring system. 1” (J Med Chem, 1992).
